Measured values: patent US6337417B1, “N-phenyltetrahydrophthalamic acid derivatives, methods of producing same, and herbicides containing same as effective components” (Central Glass Co., Ltd., priority 1994, dated 2002)

Experiments:
Assay type in all cases: in vivo
Parameters in all cases: key: 5: completely killed; 4: seriously injured; 3: considerably injured; 2: somewhat injured; 1: slightly injured; 0: not injured (normally grown)
Details in all cases: 4 weeks after treatment
[1] = test system: onamomi (heartleaf cocklebur, Xanthium strumarium); assay: Experiment 3 foliage treatment: onamomi
Protocol: (§1) Upon seedling stage (two- or three-leaved stage) of ichibi (velvetleaf, Abutilon theophrasti), onamomi (heartleaf cocklebur, Xanthium strumarium) (4L stage), noasagao (blue morningglory, Ipomoea indica) and ooinutade (pale smartweed, Persicaria lapathifolia) which were grown on a cultivated soil put in pots of 1/8850 ares, a selected compound obtained in a manner analogous to Example 8, in suspended wettable powder, was sprayed to each plant. After that, the pots were kept in a glass chamber to allow each plant to grow, and after the lapse of 4 weeks from the treatment with the selected compounds the herbicidal effects were evaluated. The evaluation of the herbicidal effects was similarly conducted as to that of Experiment 1.

[2] = test system: aobiyu (slender amaranth, Amaranthus viridis); assay: Experiment 2 foliage treatment: aobiyu
Protocol: (§2) Upon seedling stage (two- or three-leaved stage) of rice, cockspur (Panicum crus-galli), garden radish, aobiyu (slender amaranth, Amaranthus viridis) and mehishiba (henry crabgrass, Digitaria cliaris) which were grown on a cultivated soil put in pots of 1/15500 ares, a selected compound obtained in a manner analogous to Example 8, in suspended wettable powder, was sprayed to each plant. After that, the pots were kept in a glass chamber to allow each plant to grow, and after the lapse of 4 weeks from the treatment with the selected compounds the herbicidal effects were evaluated. The evaluation of the herbicidal effects was similarly conducted as to that of Experiment 1.

[3] = test system: tamagayatsuri (small-flowered umbrellaplant, Cyperus difformis); assay: Experiment 1 flooded soil treatment: tamagayatsuri
Excerpt: (§3) Paddy soil (clay loam) was put into a pot so as to have a surface area of 1/15500 ares. Uniformly mixed seeds of several kinds of weeds, viz., nobie (barnyardgrass, Echinochloa spp.), broad-leaved weeds, hotarui (bulrush, Scirpus juncoides) and tamagayatsuri (small-flowered umbrellaplant, Cyperus difformis), were sown in the surface layer of the soil in each pot, and then paddy rice seedlings at the two- or three-leaved stage were transplanted into each pot to a depth of 2 cm, and water was fed into each pot so as to provide a 3 cm deep water layer on the soil surface. After 3 days, in other words at the initial stage of germination of nobie (barnyardgrass, Echinochloa spp.), a predetermined amount of a selected compound obtained in a manner analogous to Example 8 in the form of diluted aqueous solution was dropped into the water layer in each pot. After that, the pots were kept in a glass chamber to allow the paddy rice and the weeds to grow, and after the lapse of 4 weeks from the treatment with the selected compounds, the herbicidal effects and the degree of injury to the paddy rice were evaluated. In the table, the herbicidal effects and the degree of injury to the paddy rice are indicated by numerical values, which have the following meaning.
(§4) 0: not injured (normally grown)

rice = assay: Experiment 2 foliage treatment: rice
Protocol: as §2

[4] = test system: mehishiba (henry crabgrass, Digitaria cliaris); assay: Experiment 2 foliage treatment: mehishiba
Protocol: as §2

[5] = test system: hotarui (bulrush, Scirpus juncoides); assay: Experiment 1 flooded soil treatment: hotarui
Excerpt: as §3, §4

[6] = test system: ichibi (velvetleaf, Abutilon theophrasti); assay: Experiment 3 foliage treatment: ichibi
Protocol: as §1

[7] = test system: cockspur (Panicum crus-galli); assay: Experiment 2 foliage treatment: cockspur
Protocol: as §2

[8] = test system: ooinutade (pale smartweed, Persicaria lapathifolia); assay: Experiment 3 foliage treatment: ooinutade
Protocol: as §1

[9] = test system: nobie (barnyardgrass, Echinochloa spp.); assay: Experiment 1 flooded soil treatment: nobie
Excerpt: as §3, §4

paddy rice = assay: Experiment 1 flooded soil treatment: injury to paddy rice
Excerpt: as §3, §4

broad-leaved weeds = assay: Experiment 1 flooded soil treatment: broad-leaved weeds
Excerpt: as §3, §4

garden radish = assay: Experiment 2 foliage treatment: garden radish
Protocol: as §2

[10] = test system: noasagao (blue morningglory, Ipomoea indica); assay: Experiment 3 foliage treatment: noasagao
Protocol: as §1

## CCCOC(=O)C1=C(C(=O)N(C(C)=O)c2cc(SCC(=O)OC)c(Cl)cc2F)CCCC1 [compound 13]
[1]; 4 g/10a
  Herbicidal Effect onamomi: 5
[1]; 8 g/10a
  Herbicidal Effect onamomi: 5
[2]; 40 g/10a
  Herbicidal Effect aobiyu: 5
[2]; 80 g/10a
  Herbicidal Effect aobiyu: 5
[3]; 12.5 g/10a
  Herbicidal Effect tamagayatsuri: 5
[3]; 25 g/10a
  Herbicidal Effect tamagayatsuri: 5
rice; 40 g/10a
  Herbicidal Effect rice: 1
rice; 80 g/10a
  Herbicidal Effect rice: 1
[4]; 40 g/10a
  Herbicidal Effect mehishiba: 1
[4]; 80 g/10a
  Herbicidal Effect mehishiba: 1
[5]; 12.5 g/10a
  Herbicidal Effect hotarui: 4
[5]; 25 g/10a
  Herbicidal Effect hotarui: 4
[6]; 4 g/10a
  Herbicidal Effect ichibi: 5
[6]; 8 g/10a
  Herbicidal Effect ichibi: 5
[7]; 40 g/10a
  Herbicidal Effect cockspur: 2
[7]; 80 g/10a
  Herbicidal Effect cockspur: 2
[8]; 4 g/10a
  Herbicidal Effect ooinutade: 5
[8]; 8 g/10a
  Herbicidal Effect ooinutade: 5
[9]; 12.5 g/10a
  Herbicidal Effect nobie: 5
[9]; 25 g/10a
  Herbicidal Effect nobie: 5
Paddy rice; 12.5 g/10a
  Injury of Paddy: 0
Paddy rice; 25 g/10a
  Injury of Paddy: 0.5
broad-leaved weeds; 12.5 g/10a
  Herbicidal Effect broad-leaved weed: 5
broad-leaved weeds; 25 g/10a
  Herbicidal Effect broad-leaved weed: 5
Garden radish; 40 g/10a
  Herbicidal Effect garden radish: 5
Garden radish; 80 g/10a
  Herbicidal Effect garden radish: 5
[10]; 4 g/10a
  Herbicidal Effect noasagao: 5
[10]; 8 g/10a
  Herbicidal Effect noasagao: 5

## COC(=O)C1=C(C(=O)N(C(C)=O)c2cc(SC(C)C(=O)OC)c(Cl)cc2F)CCCC1 (centres unmarked) [compound 20, N-acetyl-N-[4-chloro-2-fluoro-5-(1-methoxycarbonylethylthio)phenyl]-3,4,5,6-tetrahydrophthalamic acid methyl ester]
[1]; 4 g/10a
  Herbicidal Effect onamomi: 4
[1]; 8 g/10a
  Herbicidal Effect onamomi: 4
[2]; 40 g/10a
  Herbicidal Effect aobiyu: 5
[2]; 80 g/10a
  Herbicidal Effect aobiyu: 5
[3]; 12.5 g/10a
  Herbicidal Effect tamagayatsuri: 5
[3]; 25 g/10a
  Herbicidal Effect tamagayatsuri: 5
rice; 40 g/10a
  Herbicidal Effect rice: 1
rice; 80 g/10a
  Herbicidal Effect rice: 1
[4]; 40 g/10a
  Herbicidal Effect mehishiba: 1
[4]; 80 g/10a
  Herbicidal Effect mehishiba: 1
[5]; 12.5 g/10a
  Herbicidal Effect hotarui: 5
[5]; 25 g/10a
  Herbicidal Effect hotarui: 5
[6]; 4 g/10a
  Herbicidal Effect ichibi: 5
[6]; 8 g/10a
  Herbicidal Effect ichibi: 5
[7]; 40 g/10a
  Herbicidal Effect cockspur: 2
[7]; 80 g/10a
  Herbicidal Effect cockspur: 2
[8]; 4 g/10a
  Herbicidal Effect ooinutade: 5
[8]; 8 g/10a
  Herbicidal Effect ooinutade: 5
[9]; 12.5 g/10a
  Herbicidal Effect nobie: 5
[9]; 25 g/10a
  Herbicidal Effect nobie: 5
Paddy rice; 12.5 g/10a
  Injury of Paddy: 0.5
Paddy rice; 25 g/10a
  Injury of Paddy: 0.5
broad-leaved weeds; 12.5 g/10a
  Herbicidal Effect broad-leaved weed: 5
broad-leaved weeds; 25 g/10a
  Herbicidal Effect broad-leaved weed: 5
Garden radish; 40 g/10a
  Herbicidal Effect garden radish: 5
Garden radish; 80 g/10a
  Herbicidal Effect garden radish: 5
[10]; 4 g/10a
  Herbicidal Effect noasagao: 4
[10]; 8 g/10a
  Herbicidal Effect noasagao: 5
